Values quoted from earlier work in patent publication US20120283223A1, “CEREBRAL NERVE CELL NEOGENESIS AGENT” (priority 2010, published 2012).

Tested on: cerebral nerve cells
Details: in 3 to 4 weeks; Non-Patent Literature 1

CNCCC(Oc1ccc(C(F)(F)F)cc1)c1ccccc1 (stereo not shown) [fluoxetine]
number of cerebral nerve cells: increases
